Patent US9150530B2, “Esters of 4, 9-dihydroxy-naphtho [2, 3-b] furans for disease therapies” (Zhoushan Haizhongzhou Xinsheng Pharmaceuticals Co., Ltd., priority 2011, dated 2015)
pIC50: −log10 of the molar value.

Tests used:
DU-145 = assay: Cell viability determination (MTT), DU-145; type: cell-based; details: Homo sapiens, DU-145, prostate cancer, 48 hour incubation, read-out: Drug concentrations for 50% cell viability (IC50)
Description: (§1) Cell Culture: A549, DLD1, SW480, LOVO, HT-29, Hela, U-20S, MES-SA, SK-MEL-28, Panc-1, DU-145, CNE, U251, Eca-109, MGC80-3, QGY-7701, BEL-7404, PLC/PRF/5, Huh-7, and SGC-7901 cells were maintained in Dulbecco's Modified Eagle Medium (DMEM) (imported from Invitrogen, Carlsbad, Calif., USA) supplemented with 10% fetal bovine serum (FBS) (Si Ji Qing, Hangzhou, China) and 1% penicillin/streptomycin/amphotericin B (imported from Invitrogen, Carlsbad, Calif., USA).
(§2) Cell Viability Determination: Popular MTT method (Archives of Biochemistry and Biophysics, 1993, 303: 474-482) was used to screen the in vitro effects of the invented drugs. Briefly, 5000 to 10000 cells were inoculated per well in a 96-well plate. After overnight incubation, drug was added to the wells at final concentration of 10 μM, […], 2.5 μM, 1.25 μM, or 1 μM, 0.75 μM, 0.5 μM and 0.25 μM in complete culture medium. Each dose level covered 4 equivalent wells. After 48 hour incubation, one tenth volume of 5 mg/mL MTT (thiazolyl blue tetrazolium bromide, Sigma-Aldrich) stock solution was added, and incubation was continued for 2 hours. Then medium was removed and 100 μL of isopropanol solution comprising 86% isopropanol, 4% aqueous 1 N HCl and 10% aqueous SDS solution (10% in concentration) was added. The absorbance of each well at 570 nm wavelength was measured by a micro-plate reader after gentle shaking for 20 minutes. Drug concentrations of 50% cell viability (IC50) were calculated by LOGIT method.

[1] = Human plasma incubation, HPLC analysis of degradation products; type: in vitro ADME; details: 20 μM in human plasma, 37° C., 2 hours
Description: The compounds of formula I were incubated in human plasma at 37° C. for 2 hours, and then the mixtures were treated with acetonitrile to remove protein and the resulting supernatants were analyzed by HPLC (FIG. 2). […] Without wishing to be bound by a particular theory, it is believed that, although not detected due to instability in a protein-free environment, the direct hydrolysis product of a compound of formula I, 4,9-dihydroxy-naphtho[2,3-b]furan, and its partially oxidized product semihydroquinone (shown in scheme 6) co-exist in vivo and play important biological roles.
HPLC column: Waters Sunfire C18, 250×4.60 mm 5 micron; Mobile phase: buffer A, 90% 5 mM potassium phosphate buffer, pH 6.8, 10% acetonitrile; buffer B, 15% 5 mM potassium phosphate buffer, pH 6.8, 85% acetonitrile; Detector: Waters 2998 Photodiode Array Detector.
Gradient B: 0-3 min, 50% buffer B, 3-5 min, 50%-100% buffer B, 5-18 min, 100% buffer B, 18-22 min, 100%-50% buffer B, 22-25 min, […]; flow rate, 1 ml/min. Analysis of the 4,9-dihydroxy-naphtho[2,3-b]furan compounds (FIG. 1)
10 mM of a compound of formula I or its analog in DMSO (however, compound VI was in DMF) was diluted with human plasma to 20 μM, and the resulting mixtures were incubated at 37° C. for 2 hours. To plasma sample, 9 times volume of acetonitrile was added. The resulting mixtures were vortexed and incubated in dry ice for 30 minutes or in −20° C. freezer for 3 hours, then centrifuged, and supernatant was used for HPLC analysis using gradient B.

DLD1 = assay: Cell viability determination (MTT), DLD1; type: cell-based; details: Homo sapiens, DLD-1, DLD1, colorectal cancer, 48 hour incubation, read-out: Drug concentrations for 50% cell viability (IC50)
Description: as §1, §2

In the case of `CC(=O)Oc1c2ccccc2c(OC(=O)CNC(=O)OC(C)(C)C)c2oc(C(C)=O)cc12` [compound IV, 2-acetyl-4-acetoxy-9-[(tert-butoxycarbonyl)amino]acetoxy-naphtho[2,3-b]furan], the pIC50 (DU-145) was 6.30 to 6.60, the “Degradation / detectable products after incubation in human plasma” value [1] was “the detectable products were compound XIII and partially degraded products” and the pIC50 (DLD1) was 6.52.
